Experiment [1] addresses Kappa-type opioid receptor (Homo sapiens, UniProt P41145). Put plainly: DRUGMATRIX: Opiate kappa (OP2, KOP) radioligand binding (ligand: [3H] Diprenorphine). The format is cell membranes, HEK293, Membrane. To be noted: hek293; Not Active = under 50% inhibition at 10 µM.
Experiment [2] concerns the target Platelet-activating factor receptor (Homo sapiens, UniProt P25105). Put plainly: biochemical. The format is tissue-based. To be noted: platelet. Note: in other assays of this panel Not Active means under 50% inhibition at 10 µM.
Experiment [3] addresses D(1A) dopamine receptor (Homo sapiens, UniProt P21728). Put plainly: DRUGMATRIX: Dopamine D1 radioligand binding (ligand: [3H] SCH-23390). In kind it is cell membranes, CHO, Membrane. To be noted: cho; Not Active = under 50% inhibition at 10 µM.
For experiment [4], the target named is T1, 5-hydroxytryptamine receptor 2C (Homo sapiens, UniProt P28335).
T1 sequence (P28335 whole entry): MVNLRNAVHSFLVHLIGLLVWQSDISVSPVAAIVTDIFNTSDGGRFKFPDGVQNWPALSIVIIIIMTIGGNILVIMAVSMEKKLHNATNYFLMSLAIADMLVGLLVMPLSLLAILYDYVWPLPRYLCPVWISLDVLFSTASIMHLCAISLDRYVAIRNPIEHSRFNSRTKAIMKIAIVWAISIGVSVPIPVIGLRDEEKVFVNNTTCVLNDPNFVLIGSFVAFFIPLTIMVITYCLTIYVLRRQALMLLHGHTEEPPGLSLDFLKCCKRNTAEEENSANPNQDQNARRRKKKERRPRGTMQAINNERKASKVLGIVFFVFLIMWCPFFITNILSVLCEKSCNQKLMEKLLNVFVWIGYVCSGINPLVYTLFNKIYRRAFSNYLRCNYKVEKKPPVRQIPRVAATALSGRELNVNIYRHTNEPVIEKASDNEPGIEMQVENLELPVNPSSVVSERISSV
Put plainly: DRUGMATRIX: Serotonin (5-Hydroxytryptamine) 5-HT2C radioligand binding (ligand: [3H] Mesulergine). In kind it is cell membranes, CHO-K1, Membrane. To be noted: Not Active = under 50% inhibition at 10 µM.

In experiment [5] the target is T2, Neuropeptide Y receptor type 2 (Homo sapiens, UniProt P49146). Note: in other assays of this panel Not Active means under 50% inhibition at 10 µM.
T2 sequence (P49146 whole entry): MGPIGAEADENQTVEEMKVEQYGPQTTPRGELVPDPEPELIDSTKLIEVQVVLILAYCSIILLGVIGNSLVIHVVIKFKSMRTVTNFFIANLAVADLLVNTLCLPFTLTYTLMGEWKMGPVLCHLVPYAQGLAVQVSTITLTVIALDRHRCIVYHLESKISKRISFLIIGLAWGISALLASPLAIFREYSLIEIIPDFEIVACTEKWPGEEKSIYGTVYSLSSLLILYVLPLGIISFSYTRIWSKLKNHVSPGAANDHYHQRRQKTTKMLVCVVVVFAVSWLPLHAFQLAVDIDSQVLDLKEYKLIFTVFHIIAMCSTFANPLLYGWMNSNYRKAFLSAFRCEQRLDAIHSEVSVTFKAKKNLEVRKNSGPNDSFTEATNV
The format is cell membranes, Membrane. To be noted: kan-ts.

Experiment [6] can be described thus: DRUGMATRIX: Glutamate, AMPA radioligand binding (ligand: [3H] AMPA). In kind it is cell membranes, Rattus norvegicus, Wistar, Cerebral cortex, Membrane. To be noted: Not Active = under 50% inhibition at 10 µM.
A short description of experiment [7]: DRUGMATRIX: Imidazoline I2, Central radioligand binding (ligand: [3H] Idazoxan). The format is cell membranes, Rattus norvegicus, Wistar, Cerebral cortex, Membrane. To be noted: Not Active = under 50% inhibition at 10 µM.

Sequence of Platelet-activating factor receptor (P25105 whole entry): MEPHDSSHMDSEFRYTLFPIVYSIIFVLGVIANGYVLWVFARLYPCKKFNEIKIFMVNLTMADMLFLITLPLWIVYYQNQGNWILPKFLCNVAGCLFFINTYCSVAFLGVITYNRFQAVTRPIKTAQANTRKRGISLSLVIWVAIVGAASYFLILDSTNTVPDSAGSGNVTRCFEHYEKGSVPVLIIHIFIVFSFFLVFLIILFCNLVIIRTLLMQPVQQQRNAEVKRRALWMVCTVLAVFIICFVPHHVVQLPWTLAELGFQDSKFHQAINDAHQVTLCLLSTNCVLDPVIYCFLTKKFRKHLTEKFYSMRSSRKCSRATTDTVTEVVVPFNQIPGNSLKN
Sequence of D(1A) dopamine receptor (P21728 whole entry): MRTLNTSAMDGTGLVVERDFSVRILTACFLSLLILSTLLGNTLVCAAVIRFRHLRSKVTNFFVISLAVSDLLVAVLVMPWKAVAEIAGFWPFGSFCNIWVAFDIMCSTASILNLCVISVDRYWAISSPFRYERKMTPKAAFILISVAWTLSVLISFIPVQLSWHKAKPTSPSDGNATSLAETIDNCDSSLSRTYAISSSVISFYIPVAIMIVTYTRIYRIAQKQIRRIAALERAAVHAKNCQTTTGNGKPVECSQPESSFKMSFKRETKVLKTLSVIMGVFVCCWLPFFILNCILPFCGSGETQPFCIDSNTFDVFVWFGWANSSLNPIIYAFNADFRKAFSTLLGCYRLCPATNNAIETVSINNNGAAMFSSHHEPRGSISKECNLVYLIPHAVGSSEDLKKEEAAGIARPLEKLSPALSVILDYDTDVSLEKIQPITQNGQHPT
Sequence of Kappa-type opioid receptor (P41145 whole entry): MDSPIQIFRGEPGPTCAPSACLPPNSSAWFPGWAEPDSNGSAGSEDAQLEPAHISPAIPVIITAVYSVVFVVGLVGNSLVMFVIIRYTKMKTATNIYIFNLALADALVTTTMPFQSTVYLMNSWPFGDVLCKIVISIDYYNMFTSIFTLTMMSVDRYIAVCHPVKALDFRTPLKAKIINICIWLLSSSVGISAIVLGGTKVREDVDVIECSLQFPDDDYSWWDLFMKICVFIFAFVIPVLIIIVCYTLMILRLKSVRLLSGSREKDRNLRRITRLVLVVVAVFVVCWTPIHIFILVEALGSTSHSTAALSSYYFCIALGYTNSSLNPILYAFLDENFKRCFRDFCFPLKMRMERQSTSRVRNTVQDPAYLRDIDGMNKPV

As for `CO[C@H]1C[C@@H]2CC[C@@H](C)[C@@](O)(O2)C(=O)C(=O)N2CCCC[C@H]2C(=O)O[C@H]([C@H](C)C[C@@H]2CC[C@@H](O)[C@H](OC)C2)CC(=O)[C@H](C)/C=C(\C)[C@@H](O)[C@@H](OC)C(=O)[C@H](C)C[C@H](C)/C=C/C=C/C=C/1C` [SIROLIMUS], the IC50 result in experiment [1], in experiment [2], in experiment [3], in experiment [4] (cho-k1), in experiment [5] and in experiment [6] was “Not Active” in each case. In addition, the IC50 – broadly, the midpoint of a concentration-inhibition curve – in experiment [7] is reported as “Not Active”. The Ki entry in experiment [6] and in experiment [7] was “Not Active” each time.
Consider `CN[C@@H]1[C@H](O)[C@H](NC)[C@H]2O[C@@]3(O)C(=O)C[C@@H](C)O[C@H]3O[C@@H]2[C@H]1O` [SPECTINOMYCIN], for which the half-maximal inhibitory concentration (IC50) entry in experiment [1], in experiment [2], in experiment [3], in experiment [4] (cho-k1), in experiment [5] and in experiment [6] was “Not Active” in each case. In addition, in experiment [7], the IC50 result was “Not Active”. Moreover, the Ki entry in experiment [6] and in experiment [7] was “Not Active” each time.
Take `Nc1ccc(S(=O)(=O)Nc2ncccn2)cc1` [SULFADIAZINE]: the half-inhibitory concentration (IC50) result in experiment [1], in experiment [2], in experiment [3], in experiment [4] (cho-k1), in experiment [5] and in experiment [6] was “Not Active” in each case. Moreover, the concentration for half-maximal inhibition (IC50) result in experiment [7] is “Not Active”. Also, the inhibitory constant (Ki) entry in experiment [6] and in experiment [7] was “Not Active” throughout.
Regarding `COc1ncnc(NS(=O)(=O)c2ccc(N)cc2)c1OC` [SULFADOXINE], the IC50 result in experiment [1], in experiment [2], in experiment [3], in experiment [4] (cho-k1), in experiment [5] and in experiment [6] was “Not Active” each time. For the same compound, in experiment [7], the concentration for half-maximal inhibition (IC50) result is listed as “Not Active”. In addition, the Ki entry in experiment [6] and in experiment [7] was “Not Active” each time.
Consider `Nc1ccc(S(=O)(=O)Nc2nccs2)cc1` [SULFATHIAZOLE], for which the half-maximal inhibitory concentration (IC50) entry in experiment [1], in experiment [2], in experiment [3], in experiment [4] (cho-k1), in experiment [5] and in experiment [6] was “Not Active” throughout. Further, in experiment [7], the concentration for half-maximal inhibition (IC50) entry is “Not Active”. Also, the inhibition constant Ki entry in experiment [6] and in experiment [7] was “Not Active” throughout.
`C[C@]12CC[C@H]3[C@@H](CCC4=CC(=O)CC[C@@]43C)[C@@H]1CC[C@@H]2O` [TESTOSTERONE]: the IC50 entry in experiment [1], in experiment [2], in experiment [3], in experiment [4] (cho-k1), in experiment [5] and in experiment [6] was “Not Active” throughout. The IC50 result in experiment [7] was “Not Active”. The inhibition constant (Ki) result in experiment [6] and in experiment [7] was “Not Active” in each case.
As for `CC(C)(C)NC[C@H](O)COc1nsnc1N1CCOCC1` [TIMOLOL], the IC50 result in experiment [1], in experiment [2], in experiment [3], in experiment [4] (cho-k1), in experiment [5] and in experiment [6] was “Not Active” in each case. Further, the IC50 entry in experiment [7] is listed as “Not Active”. Also, the Ki entry in experiment [6] and in experiment [7] was “Not Active” throughout.
As for `CCS(=O)(=O)CCn1c([N+](=O)[O-])cnc1C` [TINIDAZOLE], the concentration for half-maximal inhibition (IC50) entry in experiment [1], in experiment [2], in experiment [3], in experiment [4] (cho-k1), in experiment [5] and in experiment [6] was “Not Active” in each case. The IC50 result in experiment [7] is “Not Active”. Besides, the Ki entry in experiment [6] and in experiment [7] was “Not Active” throughout.
Consider `C[C@@H]1C[C@H]2[C@@H]3CCC4=CC(=O)C=C[C@]4(C)C3=CC[C@]2(C)[C@H]1C(=O)CN1CCN(c2cc(N3CCCC3)nc(N3CCCC3)n2)CC1` [TIRILAZAD], for which the IC50 result in experiment [1] is “Not Active”; in experiment [2] it was “Not Active”; in experiment [3] it was “Not Active”; in experiment [4] (read-out: IC50), 718 nM; in experiment [5], “Not Active”; in experiment [6], “Not Active”. Also, in experiment [7], the IC50 result is “Not Active”. Moreover, the Ki – broadly, a measure of affinity in units of concentration, obtained from inhibition or displacement – in experiment [4] (read-out: Ki) is 376 nM; in experiment [6], “Not Active”; in experiment [7], “Not Active”.
On to `NC[C@H]1O[C@H](O[C@H]2[C@H](O)[C@@H](O[C@H]3O[C@H](CO)[C@@H](O)[C@H](N)[C@H]3O)[C@H](N)C[C@@H]2N)[C@H](N)C[C@@H]1O` [TOBRAMYCIN], for which the concentration for half-maximal inhibition (IC50) entry in experiment [1], in experiment [2], in experiment [3], in experiment [4] (cho-k1), in experiment [5] and in experiment [6] was “Not Active” throughout. For the same compound, in experiment [7], the IC50 result was “Not Active”. Also, the Ki entry in experiment [6] and in experiment [7] was “Not Active” in each case.
Consider `COc1ccc(CN2CCNCC2)c(OC)c1OC` [TRIMETAZIDINE], for which the half-inhibitory concentration (IC50) result in experiment [1], in experiment [2], in experiment [3], in experiment [4] (cho-k1), in experiment [5] and in experiment [6] was “Not Active” in each case. Further, in experiment [7], the IC50 result was “Not Active”. Moreover, the Ki entry in experiment [6] and in experiment [7] was “Not Active” each time.
With `CC(=O)O[C@H]1C[C@@H]2CC[C@@H]3[C@H](CC[C@@]4(C)[C@H]3C[C@H]([N+]3(C)CCCCC3)[C@@H]4OC(C)=O)[C@@]2(C)C[C@@H]1N1CCCCC1.[Br-]` [VECURONIUM BROMIDE], the IC50 result in experiment [1], in experiment [2], in experiment [3], in experiment [4] (cho-k1), in experiment [5] and in experiment [6] was “Not Active” each time. For the same compound, in experiment [7], the IC50 entry was “Not Active”. Also, the Ki result in experiment [6] and in experiment [7] was “Not Active” each time.
For the compound `COc1cc(C(=O)NS(=O)(=O)c2ccccc2C)ccc1Cc1cn(C)c2ccc(NC(=O)OC3CCCC3)cc12` [ZAFIRLUKAST], the IC50 entry in experiment [1], in experiment [2], in experiment [3], in experiment [4] (cho-k1), in experiment [5] and in experiment [6] was “Not Active” in each case. In addition, the IC50 entry in experiment [7] is “Not Active”. The inhibition constant Ki result in experiment [6] and in experiment [7] was “Not Active” each time.
Take `Cc1cn([C@H]2C[C@H](N=[N+]=[N-])[C@@H](CO)O2)c(=O)[nH]c1=O` [ZIDOVUDINE]: the IC50 entry in experiment [1], in experiment [2], in experiment [3], in experiment [4] (cho-k1), in experiment [5] and in experiment [6] was “Not Active” each time. Besides, the IC50 result in experiment [7] is on record as “Not Active”. Further, the inhibition constant (Ki) entry in experiment [6] and in experiment [7] was “Not Active” in each case.

For the origin of these results see ChEMBL document CHEMBL1909046, “DrugMatrix in vitro pharmacology data”.
